Source: patent US20100146645A1, “TRANSGENIC ANIMAL MODEL FOR MODELLING PA[…], A METHOD FOR IDENTIFYING COMPOUNDS FOR TREATMENT OF DISEASES OR DISORDERS CAUSED BY PA[…] AND A METHOD FOR USING WFS1 PROTEIN AS A TARGET FOR I[…] COMPOUNDS AGAINST PA[…]” (priority 2006, published 2010)

Experiments:
Wfs1 −/− mice [1] = assay: Light-dark cage test, vocalization; type: in vivo, mouse; settings: Wfs1 −/− mice (30% vocalized), anxiolytic dose of diazepam injected
Protocol: The cage was divided into two: a ⅔ part was lighted and a ⅓ part with darkened cover. The light part was divided into three equal parts, so that the most aversive part was the third part, which is located most distantly from the dark part. Anxious animals preferred to remain mostly in the dark part and avoided the aversive light partition. The experiment was performed one week after the elevated plus-maze experiment and no preliminary isolation of the animals was applied. Lighting level in the light part of the cage was 270 lux.
Namely, the female Wfs1 −/− mice performed 1.5-2 times less entrances to the various parts of the light partition, if compared to the wild type mice (FIG. 7) and the duration of their stay in the light part was twice shorter (FIG. 8). […] In the test cage 30% of the Wfs1 −/− mice vocalized.

Wfs1 −/− mice [2] = assay: Elevated plus-maze, effect of diazepam on anxiety behaviour and vocalization; type: in vivo, mouse

CN1C(=O)CN=C(c2ccccc2)c2cc(Cl)ccc21 [diazepam]
Vocalization in the test cage (Wfs1 −/− mice [1]): completely removed
Suppressed exploratory activity and risk behaviour (Wfs1 −/− mice [2]; Wfs1-deficient mice, diazepam 1 mg/kg): significantly reduced
Stress-induced vocalization (Wfs1 −/− mice [2]; Wfs1 −/− mice, diazepam 0.5 mg/kg): not effective
Stress-induced vocalization (Wfs1 −/− mice [2]; Wfs1 −/− mice, diazepam 1 mg/kg): removed
Vocalization (share of vocalizing mice) (Wfs1 −/− mice [2]; Wfs1 −/− mice, diazepam group, physiological saline group 24%): 0%
Time spent on the open arms of the cage (Wfs1 −/− mice [2]; female Wfs1 −/− homozygotes, diazepam 1 mg/kg vs physiological saline, FIG. 4): increased
Number of downwards examinations (head dippings) from the open arms (Wfs1 −/− mice [2]; female Wfs1 −/− homozygotes, diazepam 1 mg/kg vs physiological saline, FIG. 5): increased
Risk avoidance behaviour (Wfs1 −/− mice [2]; female Wfs1 −/− homozygotes, diazepam 1 mg/kg vs physiological saline, FIG. 6): significantly decreased
